Measurements: US10604554B2, “Double-acylated GLP-1 derivatives” (Novo Nordisk A/S, priority 2012, dated 2020)
Where two headings read alike, the source gives them in different places. Numbered stars: 1 amine (or outer) side, 2 acyl side, 3 side chain; on linkers, the order of the positions; unused ones are H or OH. Square brackets hold non-standard residues; d marks the D form. Side chains are listed from the residue outwards. Peptide text beside a SMILES is read from it. * marks the point of attachment. C18 diacid = O=C(O)CCCCCCCCCCCCCCCCC(=O)*; γGlu = O=C(O)[C@H](CCC(=O)[*:2])N[*:1]; εLys = N[C@@H](CCCCN[*:1])C(=O)[*:2]; AEEA = NCCOCCOCC(=O)O; Aib = CC(C)(N)C(=O)O

Target: T1, human GLP-1 receptor (Homo sapiens, UniProt P43220)
T1 construct: expressed in transfected cells; host or cells: BHK cells, clone FCW467-12A/KZ10-1 (parent line BHKTS13), further transfected with CRE luciferase
T1 sequence (P43220 24-463): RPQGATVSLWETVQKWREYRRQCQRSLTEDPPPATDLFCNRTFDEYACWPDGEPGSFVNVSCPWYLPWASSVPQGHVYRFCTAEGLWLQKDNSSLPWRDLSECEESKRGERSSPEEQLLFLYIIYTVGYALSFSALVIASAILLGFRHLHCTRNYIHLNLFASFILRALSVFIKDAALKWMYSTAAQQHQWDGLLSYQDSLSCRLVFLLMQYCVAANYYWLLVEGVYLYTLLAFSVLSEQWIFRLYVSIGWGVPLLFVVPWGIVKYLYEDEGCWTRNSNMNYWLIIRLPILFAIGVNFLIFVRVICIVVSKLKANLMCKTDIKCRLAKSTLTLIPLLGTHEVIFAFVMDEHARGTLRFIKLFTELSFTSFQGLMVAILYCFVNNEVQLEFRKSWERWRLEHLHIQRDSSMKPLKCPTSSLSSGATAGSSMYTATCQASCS
Assay: In vitro potency (AlphaScreen cAMP, membranes)
Type: biochemical
Summary of the method: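 Plasma membranes (6 μg/well) from BHK467-12A cells stably expressing human GLP-1 receptor stimulated with peptide in pH 7.4 Tris/HEPES buffer with 0.1% BSA, 0.5 mM IBMX, 1 mM ATP, 1 μM GTP. cAMP detected by AlphaScreen competition with biotin-cAMP after 3 h at RT, against cAMP standard.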

[1] = cAMP formation in membranes from BHK467-12A cells expressing human GLP-1 receptor, read-out: In vitro potency (AlphaScreen) EC50

EC50 [1] [nM] | Structure (SMILES) | EC50 [nM]
3.69 | CC[C@H](C)[C@H](NC(=O)[C@H](Cc1ccccc1)NC(=O)[C@H](CCC(=O)O)NC(=O)[C@H](CCCCNC(=O)[C@@H](N)CCCCNC(=O)[C@@H](N)CCCCNC(=O)CC[C@H](NC(=O)CCCCCCCCCCCCCCCCC(=O)O)C(=O)O)NC(=O)[C@H](C)NC(=O)[C@H](C)NC(=O)[C@H](CCC(N)=O)NC(=O)CNC(=O)[C@H](CCC(=O)O)NC(=O)[C@H](CC(C)C)NC(=O)[C@H](Cc1ccc(O)cc1)NC(=O)[C@H](CO)NC(=O)[C@H](CO)NC(=O)[C@@H](NC(=O)[C@H](CC(=O)O)NC(=O)[C@H](CO)NC(=O)[C@@H](NC(=O)[C@H](Cc1ccccc1)NC(=O)[C@@H](NC(=O)CNC(=O)[C@H](CCC(=O)O)NC(=O)C(C)(C)NC(=O)[C@@H](N)Cc1c[nH]cn1)[C@@H](C)O)[C@@H](C)O)C(C)C)C(=O)N[C@@H](C)C(=O)N[C@@H](Cc1c[nH]c2ccccc12)C(=O)N[C@@H](CC(C)C)C(=O)N[C@H](C(=O)N[C@@H](CCCNC(=N)N)C(=O)NCC(=O)N[C@@H](CCCNC(=N)N)C(=O)N[C@@H](CCCCNC(=O)[C@@H](N)CCCCNC(=O)[C@@H](N)CCCCNC(=O)CC[C@H](NC(=O)CCCCCCCCCCCCCCCCC(=O)O)C(=O)O)C(=O)O)C(C)C [Example 27, N^ε26-[(2S)-2-amino-6-[[(2S)-2-amino-6-[[(4S)-4-carboxy-4-(17-carboxyheptadecanoylamino)butanoyl]amino]hexanoyl]amino]hexanoyl], N^ε37-[(2S)-2-amino-6-[[(2S)-2-amino-6-[[(4S)-4-carboxy-4-(17-carboxyheptadecanoylamino)butanoyl]amino]hexanoyl]amino]hexanoyl]-[Aib^8,Arg^34,Lys^37]-GLP-1-(7-37)-peptide] | –
– | CC[C@H](C)[C@H](NC(=O)[C@H](Cc1ccccc1)NC(=O)[C@H](CCC(=O)O)NC(=O)[C@H](CCCCNC(=O)[C@@H](N)CCCCNC(=O)[C@@H](N)CCCCNC(=O)CC[C@H](NC(=O)CC[C@H](NC(=O)CCCCCCCCCCCOc1ccc(C(=O)O)cc1)C(=O)O)C(=O)O)NC(=O)[C@H](C)NC(=O)[C@H](C)NC(=O)[C@H](CCC(N)=O)NC(=O)CNC(=O)[C@H](CCC(=O)O)NC(=O)[C@H](CC(C)C)NC(=O)[C@H](Cc1ccc(O)cc1)NC(=O)[C@H](CO)NC(=O)[C@H](CO)NC(=O)[C@@H](NC(=O)[C@H](CC(=O)O)NC(=O)[C@H](CO)NC(=O)[C@@H](NC(=O)[C@H](Cc1ccccc1)NC(=O)[C@@H](NC(=O)CNC(=O)[C@H](CCC(=O)O)NC(=O)C(C)(C)NC(=O)[C@@H](N)Cc1c[nH]cn1)[C@@H](C)O)[C@@H](C)O)C(C)C)C(=O)N[C@@H](C)C(=O)N[C@@H](Cc1c[nH]c2ccccc12)C(=O)N[C@@H](CC(C)C)C(=O)N[C@H](C(=O)N[C@@H](CCCNC(=N)N)C(=O)NCC(=O)N[C@@H](CCCNC(=N)N)C(=O)N[C@@H](CCCCNC(=O)[C@@H](N)CCCCNC(=O)[C@@H](N)CCCCNC(=O)CC[C@H](NC(=O)CC[C@H](NC(=O)CCCCCCCCCCCOc1ccc(C(=O)O)cc1)C(=O)O)C(=O)O)C(=O)O)C(C)C [Example 16, N^ε26-[(2S)-2-amino-6-[[(2S)-2-amino-6-[[(4S)-4-carboxy-4-[[(4S)-4-carboxy-4-[12-(4-carboxyphenoxy)dodecanoylamino]butanoyl]amino]butanoyl]amino]hexanoyl]amino]hexanoyl], N^ε37-[(2S)-2-amino-6-[[(2S)-2-amino-6-[[(4S)-4-carboxy-4-[[(4S)-4-carboxy-4-[12-(4-carboxyphenoxy)dodecanoylamino]butanoyl]amino]butanoyl]amino]hexanoyl]amino]hexanoyl]-[Aib^8,Arg^34,Lys^37]-GLP-1-(7-37)-peptide] | 0.154
– | CC[C@H](C)[C@H](NC(=O)[C@H](Cc1ccccc1)NC(=O)[C@H](CCC(=O)O)NC(=O)[C@H](CCCCNC(=O)[C@@H](N)CCCCNC(=O)[C@@H](N)CCCCNC(=O)CC[C@H](NC(=O)CCCCCCCCCCCOc1ccc(C(=O)O)cc1)C(=O)O)NC(=O)[C@H](C)NC(=O)[C@H](C)NC(=O)[C@H](CCC(N)=O)NC(=O)CNC(=O)[C@H](CCC(=O)O)NC(=O)[C@H](CC(C)C)NC(=O)[C@H](Cc1ccc(O)cc1)NC(=O)[C@H](CO)NC(=O)[C@H](CO)NC(=O)[C@@H](NC(=O)[C@H](CC(=O)O)NC(=O)[C@H](CO)NC(=O)[C@@H](NC(=O)[C@H](Cc1ccccc1)NC(=O)[C@@H](NC(=O)CNC(=O)[C@H](CCC(=O)O)NC(=O)C(C)(C)NC(=O)[C@@H](N)Cc1c[nH]cn1)[C@@H](C)O)[C@@H](C)O)C(C)C)C(=O)N[C@@H](C)C(=O)N[C@@H](Cc1c[nH]c2ccccc12)C(=O)N[C@@H](CC(C)C)C(=O)N[C@H](C(=O)N[C@@H](CCCNC(=N)N)C(=O)NCC(=O)N[C@@H](CCCNC(=N)N)C(=O)N[C@@H](CCCCNC(=O)[C@@H](N)CCCCNC(=O)[C@@H](N)CCCCNC(=O)CC[C@H](NC(=O)CCCCCCCCCCCOc1ccc(C(=O)O)cc1)C(=O)O)C(=O)O)C(C)C [Example 7, N^ε26-[(2S)-2-amino-6-[[(2S)-2-amino-6-[[(4S)-4-carboxy-4-[12-(4-carboxyphenoxy)dodecanoylamino]butanoyl]amino]hexanoyl]amino]hexanoyl], N^ε37-[(2S)-2-amino-6-[[(2S)-2-amino-6-[[(4S)-4-carboxy-4-[12-(4-carboxyphenoxy)dodecanoylamino]butanoyl]amino]hexanoyl]amino]hexanoyl]-[Aib^8,Arg^34,Lys^37]-GLP-1-(7-37)-peptide] | 0.136
0.057 | CC[C@H](C)[C@H](NC(=O)[C@H](Cc1ccccc1)NC(=O)[C@H](CCC(=O)O)NC(=O)[C@H](CCCCNC(=O)[C@@H](N)CCCCNC(=O)COCCOCCNC(=O)COCCOCCNC(=O)CC[C@H](NC(=O)CCCCCCCCCCCCC(=O)O)C(=O)O)NC(=O)[C@H](C)NC(=O)[C@H](C)NC(=O)[C@H](CCC(N)=O)NC(=O)CNC(=O)[C@H](CCC(=O)O)NC(=O)[C@H](CC(C)C)NC(=O)[C@H](Cc1ccc(O)cc1)NC(=O)[C@H](CO)NC(=O)[C@H](CO)NC(=O)[C@@H](NC(=O)[C@H](CC(=O)O)NC(=O)[C@H](CO)NC(=O)[C@@H](NC(=O)[C@H](Cc1ccccc1)NC(=O)[C@@H](NC(=O)CNC(=O)[C@H](CCC(=O)O)NC(=O)C(C)(C)NC(=O)[C@@H](N)Cc1c[nH]cn1)[C@@H](C)O)[C@@H](C)O)C(C)C)C(=O)N[C@@H](C)C(=O)N[C@@H](Cc1c[nH]c2ccccc12)C(=O)N[C@@H](CC(C)C)C(=O)N[C@H](C(=O)N[C@@H](CCCNC(=N)N)C(=O)NCC(=O)N[C@@H](CCCNC(=N)N)C(=O)N[C@@H](CCCCNC(=O)[C@@H](N)CCCCNC(=O)COCCOCCNC(=O)COCCOCCNC(=O)CC[C@H](NC(=O)CCCCCCCCCCCCC(=O)O)C(=O)O)C(=O)O)C(C)C [Example 19, N^ε26-[(2S)-2-amino-6-[[2-[2-[2-[[2-[2-[2-[[(4S)-4-carboxy-4-(13-carboxytridecanoylamino)butanoyl]amino]ethoxy]ethoxy]acetyl]amino]ethoxy]ethoxy]acetyl]amino]hexanoyl], N^ε37-[(2S)-2-amino-6-[[2-[2-[2-[[2-[2-[2-[[(4S)-4-carboxy-4-(13-carboxytridecanoylamino)butanoyl]amino]ethoxy]ethoxy]acetyl]amino]ethoxy]ethoxy]acetyl]amino]hexanoyl]-[Aib^8,Arg^34,Lys^37]-GLP-1-(7-37)-peptide] | –
7.25 | CC[C@H](C)[C@H](NC(=O)[C@H](Cc1ccccc1)NC(=O)[C@H](CCC(=O)O)NC(=O)[C@H](CCCCNC(=O)[C@@H](N)CCCCNC(=O)COCCOCCNC(=O)COCCOCCNC(=O)CC[C@H](NC(=O)CCCCCCCCCCCCCCCCC(=O)O)C(=O)O)NC(=O)[C@H](C)NC(=O)[C@H](C)NC(=O)[C@H](CCC(N)=O)NC(=O)[C@H](CCC(=O)O)NC(=O)[C@H](CCC(=O)O)NC(=O)[C@H](CC(C)C)NC(=O)[C@H](Cc1ccc(O)cc1)NC(=O)[C@H](CO)NC(=O)[C@H](CO)NC(=O)[C@@H](NC(=O)[C@H](CC(=O)O)NC(=O)[C@H](CO)NC(=O)[C@@H](NC(=O)[C@H](Cc1ccccc1)NC(=O)[C@@H](NC(=O)CNC(=O)[C@H](CCC(=O)O)NC(=O)C(C)(C)NC(=O)[C@@H](N)Cc1c[nH]cn1)[C@@H](C)O)[C@@H](C)O)C(C)C)C(=O)N[C@@H](C)C(=O)N[C@@H](Cc1c[nH]c2ccccc12)C(=O)N[C@@H](CC(C)C)C(=O)N[C@H](C(=O)N[C@@H](CCC(N)=O)C(=O)NCC(=O)N[C@@H](CCCNC(=N)N)C(=O)N[C@@H](CCCCNC(=O)[C@@H](N)CCCCNC(=O)COCCOCCNC(=O)COCCOCCNC(=O)CC[C@H](NC(=O)CCCCCCCCCCCCCCCCC(=O)O)C(=O)O)C(=O)O)C(C)C [Example 28, N^ε26-[(2S)-2-amino-6-[[2-[2-[2-[[2-[2-[2-[[(4S)-4-carboxy-4-(17-carboxyheptadecanoylamino)butanoyl]amino]ethoxy]ethoxy]acetyl]amino]ethoxy]ethoxy]acetyl]amino]hexanoyl], N^ε37-[(2S)-2-amino-6-[[2-[2-[2-[[2-[2-[2-[[(4S)-4-carboxy-4-(17-carboxyheptadecanoylamino)butanoyl]amino]ethoxy]ethoxy]acetyl]amino]ethoxy]ethoxy]acetyl]amino]hexanoyl]-[Aib^8,Glu^22,Gln^34, Lys^37]-GLP-1-(7-37)-peptide] (H-H[Aib]EGTFTSDVSSYLEEQAAK([εLys-AEEA-AEEA-γGlu-C18 diacid])EFIAWLVQGRK([εLys-AEEA-AEEA-γGlu-C18 diacid])-OH; N-terminus and C-terminus assumed) | –
